The subject of experiment [1] is CH1cisR. Put plainly: Ovarian carcinoma cytotoxicity assay. Type of experiment: cell-based. The note with it: Homo sapiens, CH1cisR, 96 h, read-out: IC50 CH1cisR, cisplatin-resistant, 96 hours, sulphorhodamine B. The procedure, abridged: (§1)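 Cells attached overnight, then read 96 hours later by sulphorhodamine B staining of TCA-fixed cells, with absorbance at 540 nm. IC50 taken from concentration versus % absorbance relative to untreated wells; cisR lines are cisplatin-resistant.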

Experiment [2] has as its system CH1. Put plainly: Ovarian carcinoma cytotoxicity assay. Type of experiment: cell-based. The note with it: Homo sapiens, CH1, 96 h, read-out: IC50 CH1, 96 hours, sulphorhodamine B. The procedure, abridged:
as §1

In experiment [3] the test system is SKOV-3. Description: Ovarian carcinoma cytotoxicity assay. Type of experiment: cell-based. As to conditions: Homo sapiens, SK-OV-3, 96 h, read-out: IC50 Skov3, 96 hours, sulphorhodamine B. The method in brief:
as §1

Experiment [4] concerns NCI-H522. Put plainly: NCI in vitro cytotoxicity screen. Type of experiment: cell-based. The note with it: Homo sapiens, NCI-H522, 48 h, read-out: LC50. The method in brief: (§2)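 Cells plated at 5000-40,000 per well, preincubated 24 h at 37° C., then exposed continuously for 48 h to five 10-fold dilutions (10^−4 to 10^−8 […]) in 5% CO2. Viability read by sulphorhodamine B protein staining (optical density); LC50 taken as the dose killing half the cells.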

Experiment [5] relates to LOX IMVI. Put plainly: NCI in vitro cytotoxicity screen. Type of experiment: cell-based. The note with it: Homo sapiens, 48 h, read-out: LC50. The method in brief: as §2
Experiment [6] deals with RXF 393. Description: NCI in vitro cytotoxicity screen. Type of experiment: cell-based. The note with it: Homo sapiens, RXF 393, 48 h, read-out: LC50. The procedure, abridged: as §2
For experiment [7], the system named is SK-MEL-28. Description: NCI in vitro cytotoxicity screen. Type of experiment: cell-based. As to conditions: Homo sapiens, SK-MEL-28, 48 h, read-out: LC50. The method in brief:
as §2

For experiment [8], the system named is SF-539. Put plainly: NCI in vitro cytotoxicity screen. Type of experiment: cell-based. The note with it: Homo sapiens, SF-539, 48 h, read-out: LC50. The procedure, abridged:
as §2

Experiment [9] has as its system SK-MEL-2. Description: NCI in vitro cytotoxicity screen. Type of experiment: cell-based. As to conditions: Homo sapiens, SK-MEL-2, 48 h, read-out: LC50. The method in brief:
as §2

Experiment [10] deals with MALME-3M. Description: NCI in vitro cytotoxicity screen. Type of experiment: cell-based. The note with it: Homo sapiens, Malme-3M, 48 h, read-out: LC50. The method in brief:
as §2

Experiment [11] deals with M14. Description: NCI in vitro cytotoxicity screen. Type of experiment: cell-based. As to conditions: Homo sapiens, M14, 48 h, read-out: LC50. The method in brief:
as §2

Experiment [12] deals with SF-295. Description: cells. Type of experiment: cell-based. As to conditions: Homo sapiens, SF-295, 48 h, read-out: LC50. How it is done: The National Cancer Institute (NCI), Bethesda, Md., USA has available an in vitro cytotoxicity screen which consists of approximately 60 human tumour cell lines against which compounds are tested at a minimum of five concentrations each differing 10-fold. A 48 hour continuous exposure protocol is used, where cell viability or growth is estimated with an SRB protein assay.
The test compounds were evaluated against approximately 60 human tumour cell lines. The NCI screening procedures were described in detail by Monks and co-workers (Monks, A et al., Journal of the National Cancer Institute, 1991, 83, 757). Briefly, cell suspensions were diluted according to the particular cell type and the expected target cell density (5000-40,000 cells per well based on cell growth characteristics), and added by pipette (100 μL) into 96-well microtitre plates. The cells were allowed a preincubation period of 24 hours at 37° C. for stabilisation. Dilutions at twice the intended test concentration were added at time zero in 100 μL aliquots to the wells. The test compounds were evaluated at five 10-fold dilutions (10^−4, 10^−5, 10^−6, 10^−7 and 10^−8 μM). […] A plate reader was used to read the optical densities and a microcomputer processed the readings into LC50 values, which is the dosage required to kill half of the cells.

Experiment [13] relates to A2780. Description: Ovarian carcinoma cytotoxicity assay. Type of experiment: cell-based, human. The note with it: Homo sapiens, A2780, 96 h, read-out: IC50 A2780, 96 hours, sulphorhodamine B. The method in brief:
as §1

The test system of experiment [14] is A2780cisR. Description: Ovarian carcinoma cytotoxicity assay. Type of experiment: cell-based, human. As to conditions: Homo sapiens, A2780cisR, 96 h, read-out: IC50 A2780cisR, cisplatin-resistant, 96 hours, sulphorhodamine B. The method in brief:
as §1

Consider `COc1cc2c(cc1OCCC(=O)N1CCCC1)N=C[C@@H]1CCCN1C2=O` [UP2005 (161), 3-(7-methoxy-5-oxy(11aS)-2,3,5,11a-tetrahydro-1H-benzo[e]pyrrolo[1,2-a][1,4]diazepin-8-yloxy)-1-perhydro-1-pyrrolyl-1-propanone], for which the IC50 in [1] is 1850 nM; in experiment [2], 1400 nM; in [3], 5.4 µM; in [13] it was 1500 nM; in experiment [14], 4.3 µM. Besides, the CC50 worked out at 8.7 µM in experiment [4]; 9.2 µM in experiment [5]; 6.8 µM in experiment [6]; 6.5 µM in experiment [7]; 7.7 µM in experiment [8]; 7.6 µM in experiment [9]. In addition, the CC50 in [10] is 7.5 µM; in experiment [11] it was 6.2 µM; in experiment [12], 8.8 µM.

Values taken from US7049311B1, “Pyrrolbenzodiazepines” (Spirogen Limited, priority 1998, dated 2006).
